In brackets after ≈: the same amount, converted by molar mass.
What was measured:
Escherichia coli = experiment: Antibacterial activity against Escherichia coli SKF-12140 after 24 hrs by broth microdilution method; type: functional
Staphylococcus aureus [1] = experiment: Antibacterial activity against methicillin-resistant Staphylococcus aureus clinical isolate after 24 hrs by broth microdilution method; type: functional
Staphylococcus aureus [2] = experiment: Antibacterial activity against methicillin-resistant and vancomycin-intermediate resistant Staphylococcus aureus clinical isolate after 24 hrs by broth microdilution method; type: functional
Candida albicans = experiment: Antifungal activity against Candida albicans SKF-2270 after 24 hrs by broth microdilution method; type: functional
Staphylococcus aureus [3] = experiment: Antibacterial activity against vancomycin-intermediate resistant Staphylococcus aureus clinical isolate after 24 hrs by broth microdilution method; type: functional
Enterococcus faecalis [4] = experiment: Antibacterial activity against vancomycin A-resistant Enterococcus faecalis after 24 hrs by broth microdilution method; type: functional
Enterococcus faecium [5] = experiment: Antibacterial activity against vancomycin A-resistant Enterococcus faecium clinical isolate after 24 hrs by broth microdilution method; type: functional
Enterococcus faecium [6] = experiment: Antibacterial activity against Enterococcus faecium after 24 hrs by broth microdilution method; type: functional
[7] = Toxicity assessed as hemolysis in erythrocytes at 180 mg/L; type: cell-based, Erythrocyte; conditions: human; for hemolysis at 180 mg/L: erythrocytes, read-out: Activity
Staphylococcus aureus [8] = experiment: Antibacterial activity against Staphylococcus aureus Smith after 24 hrs by broth microdilution method; type: functional
[9] = Toxicity assessed as hemolysis in erythrocytes at 90 mg/L; type: cell-based, Erythrocyte; conditions: human; for hemolysis at 90 mg/L: erythrocytes, read-out: Activity
Enterococcus faecalis [10] = experiment: Antibacterial activity against Enterococcus faecalis after 24 hrs by broth microdilution method; type: functional
Streptococcus pyogenes = experiment: Antibacterial activity against Streptococcus pyogenes C203 after 24 hrs by broth microdilution method; type: functional; conditions: C203, 24 h

SMILES | MIC (Escherichia coli; read-out: MIC) [µg/mL] | MIC (Staphylococcus aureus [1]; read-out: MIC) [µg/mL] | MIC (Staphylococcus aureus [2]; read-out: MIC) [µg/mL] | MIC (Candida albicans; read-out: MIC) [µg/mL] | MIC (Staphylococcus aureus [3]) [µg/mL] | MIC (Enterococcus faecalis [4]; read-out: MIC) [µg/mL] | MIC (Enterococcus faecium [5]; read-out: MIC) [µg/mL] | MIC (Enterococcus faecium [6]; read-out: MIC) [µg/mL] | hemolysis at 180 mg/L [7] [%] | MIC (Staphylococcus aureus [8]; read-out: MIC) [µg/mL] | hemolysis at 90 mg/L [9] [%] | MIC (Enterococcus faecalis [10]; read-out: MIC) [µg/mL] | MIC (Streptococcus pyogenes; read-out: MIC) [µg/mL] | further results
CC(C)C[C@@H]1NC(=O)CNC(=O)[C@H](c2ccc(O)cc2)NC(=O)[C@@H]([C@@H](C)O)NC(=O)[C@H](c2ccc(O[C@H]3O[C@H](CO)[C@@H](O)[C@H](O)[C@@H]3O[C@H]3O[C@H](CO)[C@@H](O)[C@H](O)[C@@H]3O)cc2)NC(=O)[C@@H](CCCN)NC(=O)[C@H](Cc2ccccc2)NC(=O)[C@H]([C@@H](C)O)NC(=O)[C@@H](c2ccc(O)cc2)NC(=O)[C@H](c2ccc(O)cc2)NC(=O)[C@@H](C(C)C)NC(=O)[C@@H](CCCN)NC(=O)[C@@H](c2ccc(O)cc2)NC(=O)[C@@H](CNC(=O)[C@H](CC(N)=O)NC(=O)c2ccc(C#N)cc2)[C@@H](C(N)=O)OC(=O)[C@H](c2ccc(O)c(Cl)c2)NC(=O)[C@@H](C)NC1=O | > 32 | 4 (≈ 1.56 µM) | 32 (≈ 12.5 µM) | > 32 | 32 (≈ 12.5 µM) | 8 (≈ 3.13 µM) | 4 (≈ 1.56 µM) | 8 (≈ 3.13 µM) | 3 | 8 (≈ 3.13 µM) | 2 | 4 (≈ 1.56 µM) | 0.06 (≈ 0.0234 µM) | 
CC(C)C[C@@H]1NC(=O)CNC(=O)[C@H](c2ccc(O)cc2)NC(=O)[C@@H]([C@@H](C)O)NC(=O)[C@H](c2ccc(O[C@H]3O[C@H](CO)[C@@H](O)[C@H](O)[C@@H]3O[C@H]3O[C@H](CO)[C@@H](O)[C@H](O)[C@@H]3O)cc2)NC(=O)[C@@H](CCCN)NC(=O)[C@H](Cc2ccccc2)NC(=O)[C@H]([C@@H](C)O)NC(=O)[C@@H](c2ccc(O)cc2)NC(=O)[C@H](c2ccc(O)cc2)NC(=O)[C@@H](C(C)C)NC(=O)[C@@H](CCCN)NC(=O)[C@@H](c2ccc(O)cc2)NC(=O)[C@@H](CNC(=O)[C@H](CC(N)=O)NC(=O)Cc2cccc3ccccc23)[C@@H](C(N)=O)OC(=O)[C@H](c2ccc(O)c(Cl)c2)NC(=O)[C@@H](C)NC1=O |  |  |  |  | 0.0005 (≈ 0.000192 µM) |  |  |  |  |  |  |  |  | MIC (Escherichia coli): > 32 µg/mL; MIC (Staphylococcus aureus [1]): 0.125 µg/mL (≈ 0.0481 µM); MIC (Staphylococcus aureus [2]): 1 µg/mL (≈ 0.385 µM); MIC (Candida albicans): > 32 µg/mL; MIC (Enterococcus faecalis [4]): 0.125 µg/mL (≈ 0.0481 µM); MIC (Enterococcus faecium [5]): 0.25 µg/mL (≈ 0.0962 µM); MIC (Enterococcus faecium [6]): 0.25 µg/mL (≈ 0.0962 µM); Activity ([7]; erythrocyte): 28%; MIC (Staphylococcus aureus [8]): 0.25 µg/mL (≈ 0.0962 µM); Activity ([9]; erythrocyte): 15%; MIC (Enterococcus faecalis [10]): 0.125 µg/mL (≈ 0.0481 µM); MIC (Streptococcus pyogenes): ≤ 0.03 µg/mL
CCCCCCCOc1ccc(C(=O)N[C@@H](CC(N)=O)C(=O)NC[C@@H]2C(=O)N[C@H](c3ccc(O)cc3)C(=O)N[C@H](CCCN)C(=O)N[C@H](C(C)C)C(=O)N[C@@H](c3ccc(O)cc3)C(=O)N[C@H](c3ccc(O)cc3)C(=O)N[C@@H]([C@@H](C)O)C(=O)N[C@@H](Cc3ccccc3)C(=O)N[C@H](CCCN)C(=O)N[C@@H](c3ccc(O[C@H]4O[C@H](CO)[C@@H](O)[C@H](O)[C@@H]4O[C@H]4O[C@H](CO)[C@@H](O)[C@H](O)[C@@H]4O)cc3)C(=O)N[C@H]([C@@H](C)O)C(=O)N[C@@H](c3ccc(O)cc3)C(=O)NCC(=O)N[C@@H](CC(C)C)C(=O)N[C@H](C)C(=O)N[C@@H](c3ccc(O)c(Cl)c3)C(=O)O[C@@H]2C(N)=O)cc1 | > 32 | 4 (≈ 1.51 µM) | 16 (≈ 6.04 µM) | > 32 | 8 (≈ 3.02 µM) | 2 (≈ 0.755 µM) | 1 (≈ 0.378 µM) | 2 (≈ 0.755 µM) | 21 | 8 (≈ 3.02 µM) | 0 | 2 (≈ 0.755 µM) | 2 (≈ 0.755 µM) | 
CCCCCCCCc1ccc(C(=O)N[C@@H](CC(N)=O)C(=O)NC[C@@H]2C(=O)N[C@H](c3ccc(O)cc3)C(=O)N[C@H](CCCN)C(=O)N[C@H](C(C)C)C(=O)N[C@@H](c3ccc(O)cc3)C(=O)N[C@H](c3ccc(O)cc3)C(=O)N[C@@H]([C@@H](C)O)C(=O)N[C@@H](Cc3ccccc3)C(=O)N[C@H](CCCN)C(=O)N[C@@H](c3ccc(O[C@H]4O[C@H](CO)[C@@H](O)[C@H](O)[C@@H]4O[C@H]4O[C@H](CO)[C@@H](O)[C@H](O)[C@@H]4O)cc3)C(=O)N[C@H]([C@@H](C)O)C(=O)N[C@@H](c3ccc(O)cc3)C(=O)NCC(=O)N[C@@H](CC(C)C)C(=O)N[C@H](C)C(=O)N[C@@H](c3ccc(O)c(Cl)c3)C(=O)O[C@@H]2C(N)=O)cc1 | > 32 | 8 (≈ 3.02 µM) | 16 (≈ 6.05 µM) | > 32 | 16 (≈ 6.05 µM) | 4 (≈ 1.51 µM) | 4 (≈ 1.51 µM) | 4 (≈ 1.51 µM) | 72 | 8 (≈ 3.02 µM) | 95 | 4 (≈ 1.51 µM) | 2 (≈ 0.756 µM) | 
CCCCCCC(=O)N[C@@H](CC(N)=O)C(=O)NC[C@@H]1C(=O)N[C@H](c2ccc(O)cc2)C(=O)N[C@H](CCCN)C(=O)N[C@H](C(C)C)C(=O)N[C@@H](c2ccc(O)cc2)C(=O)N[C@H](c2ccc(O)cc2)C(=O)N[C@@H]([C@@H](C)O)C(=O)N[C@@H](Cc2ccccc2)C(=O)N[C@H](CCCN)C(=O)N[C@@H](c2ccc(O[C@H]3O[C@H](CO)[C@@H](O)[C@H](O)[C@@H]3O[C@H]3O[C@H](CO)[C@@H](O)[C@H](O)[C@@H]3O)cc2)C(=O)N[C@H]([C@@H](C)O)C(=O)N[C@@H](c2ccc(O)cc2)C(=O)NCC(=O)N[C@@H](CC(C)C)C(=O)N[C@H](C)C(=O)N[C@@H](c2ccc(O)c(Cl)c2)C(=O)O[C@@H]1C(N)=O | > 32 | 1 (≈ 0.393 µM) | 8 (≈ 3.15 µM) | > 32 | 4 (≈ 1.57 µM) | 0.5 (≈ 0.197 µM) | 1 (≈ 0.393 µM) | 1 (≈ 0.393 µM) | 1 | 1 (≈ 0.393 µM) | 2 | 0.5 (≈ 0.197 µM) | < 0.03 | 
CC(C)C[C@@H]1NC(=O)CNC(=O)[C@H](c2ccc(O)cc2)NC(=O)[C@@H]([C@@H](C)O)NC(=O)[C@H](c2ccc(O[C@H]3O[C@H](CO)[C@@H](O)[C@H](O)[C@@H]3O[C@H]3O[C@H](CO)[C@@H](O)[C@H](O)[C@@H]3O)cc2)NC(=O)[C@@H](CCCN)NC(=O)[C@H](Cc2ccccc2)NC(=O)[C@H]([C@@H](C)O)NC(=O)[C@@H](c2ccc(O)cc2)NC(=O)[C@H](c2ccc(O)cc2)NC(=O)[C@@H](C(C)C)NC(=O)[C@@H](CCCN)NC(=O)[C@@H](c2ccc(O)cc2)NC(=O)[C@@H](CNC(=O)[C@H](CC(N)=O)NC(=O)c2ccc(Cl)cc2)[C@@H](C(N)=O)OC(=O)[C@H](c2ccc(O)c(Cl)c2)NC(=O)[C@@H](C)NC1=O | > 32 | 1 (≈ 0.389 µM) | 4 (≈ 1.56 µM) | > 32 | 2 (≈ 0.779 µM) | 0.5 (≈ 0.195 µM) | 0.5 (≈ 0.195 µM) | 0.5 (≈ 0.195 µM) | 13 | 0.5 (≈ 0.195 µM) | 5 | 0.5 (≈ 0.195 µM) | < 0.03 | 
CCCCc1ccc(C(=O)N[C@@H](CC(N)=O)C(=O)NC[C@@H]2C(=O)N[C@H](c3ccc(O)cc3)C(=O)N[C@H](CCCN)C(=O)N[C@H](C(C)C)C(=O)N[C@@H](c3ccc(O)cc3)C(=O)N[C@H](c3ccc(O)cc3)C(=O)N[C@@H]([C@@H](C)O)C(=O)N[C@@H](Cc3ccccc3)C(=O)N[C@H](CCCN)C(=O)N[C@@H](c3ccc(O[C@H]4O[C@H](CO)[C@@H](O)[C@H](O)[C@@H]4O[C@H]4O[C@H](CO)[C@@H](O)[C@H](O)[C@@H]4O)cc3)C(=O)N[C@H]([C@@H](C)O)C(=O)N[C@@H](c3ccc(O)cc3)C(=O)NCC(=O)N[C@@H](CC(C)C)C(=O)N[C@H](C)C(=O)N[C@@H](c3ccc(O)c(Cl)c3)C(=O)O[C@@H]2C(N)=O)cc1 | > 32 | 0.5 (≈ 0.193 µM) | 4 (≈ 1.54 µM) | > 32 | 2 (≈ 0.772 µM) | 0.25 (≈ 0.0965 µM) | 0.25 (≈ 0.0965 µM) | 0.25 (≈ 0.0965 µM) | 91 | 0.25 (≈ 0.0965 µM) | 47 | 0.25 (≈ 0.0965 µM) | < 0.03 | 

Reference: ChEMBL document CHEMBL1145390, “Synthesis and preliminary biological characterization of new semisynthetic derivatives of ramoplanin” (J Med Chem, 2007)
